The values below come from US10420813B2, “Competitive inhibitors of invariant chain expression and/or ectopic clip binding” (Regents of the University of Colorado, a body corporate, priority 2007, dated 2019).

No end group written: not given here.

For test [1] the following is noted: background statement; cited from earlier work.
In a further test the test system is Raji cells. The test can be described thus: Binding of biotinylated peptide to cells (Streptavidin-PE). Conditions: 50 microMolar. The test is classed as cell-based, human. The protocol: (§1) The ability of synthetic peptides to compete with binding of CLIP peptides and result in the cell surface expression of CD1d was determined.
(§2) Results: The results shown in FIG. 5 are expressed in histogram analyses. The Y axis represents cell number of the 5000 live cells versus the X axis which is a reflection of relative Fitc fluorescence versus Streptavidin-PE (eBioscience, Cat. #12-4317) that will bind with high affinity to cell-bound biotinylated peptides. The distance between the histogram from the isotype control staining versus the histogram reflecting the specific stain and is a measure of level of cell surface CD1d.
(§3) Cell Culture Conditions: The Raji and Daudi cell lines were purchased from American Type Culture Collection, were thawed, and grown in RPMI 1640 medium supplemented with standard supplements, including 10% fetal calf serum, gentamycin, penicillin, streptomycin, sodium pyruvate, HEPES buffer, 1-glutamine, and 2-ME.
(§4) Protocol: Cells were plated into a 12 well plate with 3 mls total volume containing approximately 1.5×10^6/well for Daudi cells and 3.0×10^6/well for Raji cells. Treatment groups included no treatment as control and biotinylated […] (SEQ ID NO: 2) (also referred to as MKN 5) at 50 microMolar final concentration based on the reported molarity of the synthesized compounds.
(§5) The cells were incubated at 37° C. in an atmosphere containing 5% CO2 and approximately 92% humidity. The cells were incubated for 4 and 24 hours. At each time point, the cells from that experimental time were harvested and stained for flow cytometric analysis of cell surface expression of CD1d by staining with PE anti-human CD1d (eBioscience, clone 51.5, cat. #12-00016-71).
(§6) Harvested cells were stained using standard staining procedure that called for a 1:100 dilution of PE anti-CD1d. Following staining on ice for 25 minutes, cells were washed with PBS/FCS and resuspended in 100 microliters and added to staining tubes containing 400 microliters of PBS. Samples were acquired and analyzed on a Coulter Excel Flow Cytometer.

A further test relates to Daudi cells. The test is described as above. Format: cell-based, human. Conditions: 50 microMolar. How it is done: as §1, §2, §3, §4, §5, §6
Test [2] concerns cell surface CD1d on Daudi cells. The test can be described thus: Cell surface expression of CD1d. Format: cell-based, human. Conditions: 50 microMolar. The protocol: as §1, §2, §3, §4, §5, §6
Test [3] relates to cell surface CD1d on Raji cells. The test is described as follows: Cell surface expression of CD1d. The test is classed as cell-based, human. Conditions: 50 microMolar. How it is done: as §1, §2, §3, §4, §5, §6
Test [4] concerns cell surface CD74 on Raji cells. The test is described as follows: Cell surface CD74 by flow cytometry. Format: cell-based, human. Conditions: 24 and 48 hours. The protocol:
(§7) The ability of MKN1 (bioCLIP) to alter cell surface CLIP and CD74 levels was determined using Raji or Daudi cells.
(§8) Data were analyzed by histogram with Y axis represents cell number of the 5000 live cells versus the X axis which is a reflection of relative FITC fluorescence with either antibodies to CLIP or CD74. The distance between the histogram from the isotype control staining versus the histogram reflecting the specific stain and is a measure of level of cell surface CLIP or CD74 when staining a population of live Raji or Daudi cells.
as §3
(§9) Protocol: Cells were plated into a 12 well plate with 3 mls total volume containing approximately 0.5×10^6/mL for Daudi cells and 0.5×10^6/mL for Raji cells. […]
(§10) Harvested cells were stained using standard staining procedure that called for a 1:100 dilution of Fitc-anti-human CLIP or CD74 antibody (Fitc, Pharmingen, Cat #554647) or isotype control. […] Samples were acquired and analyzed on a Coulter Excel Flow Cytometer.
(In general: Flow cytometry measures light scatter and fluorescence of single cells or particles in a stream.)

Test [5] relates to cell surface CD74 on Daudi cells. The test is described as follows: Cell surface CD74 by flow cytometry. Format: cell-based, human. Conditions: 24 and 48 hours. The protocol:
as §7, §8, §3, §9, §10

The subject of test [6] is cell surface CLIP on Daudi cells. The test is described as follows: Cell surface CLIP by flow cytometry. Format: cell-based, human. Conditions: 24 and 48 hours. How it is done:
(§11) Kinetics of CLIP displacement from the surface of model B cells lines (Daudi and Raji) in response to thymic nuclear protein mixture was determined.
(§12) Results were expressed in histogram analyses (FIG. 3). The Y axis represents cell number of the 5000 live cells versus the X axis which is a reflection of relative Fitc fluorescence. The distance between the histogram from the isotype control staining versus the histogram reflecting the specific stain is a measure of level of cell surface CLIP on a population of live Raji or Daudi cells as indicated. […]
(§13) Harvested cells were stained using standard staining procedure that called for a 1:100 dilution of Fitc-anti-human CLIP or isotype control. […] Samples were acquired and analyzed on a Coulter Excel Flow Cytometer.
as §7
(§14) Data were analyzed by histogram with Y axis represents cell number of the 5000 live cells versus the X axis which is a reflection of relative FITC fluorescence with either antibodies to CLIP or CD74. […]
(§15) Harvested cells were stained using standard staining procedure that called for a 1:100 dilution of Fitc-anti-human CLIP or CD74 antibody (Fitc, Pharmingen, Cat #554647) or isotype control. […] Samples were acquired and analyzed on a Coulter Excel Flow Cytometer. […]

In test [7] the test system is cell surface CLIP on Raji cells. The test can be described thus: Cell surface CLIP by flow cytometry. Conditions: 24 and 48 hours. Format: cell-based, human. How it is done: as §11, §12, §13, §7, §14, §15

As to `C=CC[C@@H]1/C=C(\C)C[C@H](C)C[C@H](OC)[C@H]2O[C@@](O)(C(=O)C(=O)N3CCCC[C@H]3C(=O)O[C@H](/C(C)=C/[C@@H]3CC[C@@H](O)[C@H](OC)C3)[C@H](C)[C@@H](O)CC1=O)[C@H](C)C[C@@H]2OC` [FK506, tacrolimus], the “immunosuppressive activity relative to cyclosporin” value in test [1] was 10-100 times greater than cyclosporin.

For “Biotinylated FRIMAVLAS: biotinylated FRIMAVLAS (SEQ ID NO: 2), also referred to as MKN 5 (also: biotinylated, position not given here)”, the “binding of biotinylated peptide to cells” value in the test with Raji cells (4 hours) was “bound with high affinity”; with Raji cells (24 hours) it was “Less binding”; with Daudi cells (4 hours), “bound with high affinity”; with Daudi cells (24 hours), “Less binding”. Also, the “cell surface expression of CD1d” value in [2] (4 hours) was “marginally”; in [2] (24 hours), “slightly more”; in [3] (4 hours), “marginally”; in test [3] (24 hours), “slightly more”.

As for “SGG GSK MRM ATP LLM QAL Y [MKN1 (bioCLIP)]”, the “cell surface CD74 level” value in test [4] and in [5] was “alters” throughout. Further, the “cell surface CLIP level” value in test [6] and in test [7] was “alters” each time.
